Consider two molecules from PMC9329436, “Optimization of the 4-anilinoquin(az)oline scaffold as epidermal growth factor receptor (EGFR) inhibitors for chordoma utilizing a toxicology profiling assay platform” (Scientific Reports, 2022).

As usually defined, the IC50 is the concentration that inhibits the measured activity by half. Low values mean greater potency, high ones weaker potency.

In assay [1] the target is EGFR (Homo sapiens, UniProt P00533). As to the kind of experiment: ProQinase in-cell EGFR assay (EGFR phosphorylation in A431 cells). Also on record: This cell line endogenously expresses a high level of EGFR; endogenous in cells; host or cells: A431. It is filed as cell-based. The source says: In addition, we ran an EGFR in-cell target engagement assay, measuring in-cell EGFR phosphorylation, using the human epidermoid carcinoma cell line A431. This cell line endogenously expresses a high level of EGFR, and stimulation of these cells with human epidermal growth factor (EGF) results in receptor tyrosine autophosphorylation.
EGFR, sequence (P00533 25-1210): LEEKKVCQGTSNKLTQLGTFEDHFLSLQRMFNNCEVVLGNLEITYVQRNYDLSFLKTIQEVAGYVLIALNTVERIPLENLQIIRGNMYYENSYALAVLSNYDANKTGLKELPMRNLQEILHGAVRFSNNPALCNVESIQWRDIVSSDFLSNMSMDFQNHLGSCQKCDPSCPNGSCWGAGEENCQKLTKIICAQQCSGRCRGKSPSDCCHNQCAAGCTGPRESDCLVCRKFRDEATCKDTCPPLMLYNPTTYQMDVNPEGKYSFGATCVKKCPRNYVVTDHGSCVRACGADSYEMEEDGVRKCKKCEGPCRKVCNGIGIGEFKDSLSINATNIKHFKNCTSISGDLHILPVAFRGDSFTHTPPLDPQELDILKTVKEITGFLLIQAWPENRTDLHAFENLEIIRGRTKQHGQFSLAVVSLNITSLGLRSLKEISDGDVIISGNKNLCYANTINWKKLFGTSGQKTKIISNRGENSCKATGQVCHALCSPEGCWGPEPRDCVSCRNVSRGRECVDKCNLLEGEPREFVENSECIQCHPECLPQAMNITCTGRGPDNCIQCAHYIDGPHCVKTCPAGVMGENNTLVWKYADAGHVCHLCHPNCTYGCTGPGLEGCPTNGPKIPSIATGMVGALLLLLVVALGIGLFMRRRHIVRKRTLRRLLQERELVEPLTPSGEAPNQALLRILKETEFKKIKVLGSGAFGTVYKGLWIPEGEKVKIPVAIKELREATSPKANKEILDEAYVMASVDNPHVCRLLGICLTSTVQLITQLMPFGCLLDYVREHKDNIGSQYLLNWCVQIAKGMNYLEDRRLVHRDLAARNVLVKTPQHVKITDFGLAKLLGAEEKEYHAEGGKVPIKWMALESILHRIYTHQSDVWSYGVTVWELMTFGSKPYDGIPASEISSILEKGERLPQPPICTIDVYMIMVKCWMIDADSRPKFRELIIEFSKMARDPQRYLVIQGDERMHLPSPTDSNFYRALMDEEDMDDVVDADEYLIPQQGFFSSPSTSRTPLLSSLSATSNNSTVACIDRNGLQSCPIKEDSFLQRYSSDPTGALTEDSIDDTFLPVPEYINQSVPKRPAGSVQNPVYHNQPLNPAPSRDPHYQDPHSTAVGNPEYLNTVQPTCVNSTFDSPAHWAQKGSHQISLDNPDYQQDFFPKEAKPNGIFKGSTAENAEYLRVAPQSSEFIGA

Assay [2] has as its target 320 wild-type protein kinases (Homo sapiens, UniProt P80192). Type of assay: biochemical. As to conditions: singlicate. The source says: (§1) Table S4. Profiling of two compounds at two concentrations against 320 wild-type protein kinases; singlicate measurement; Residual activities (% of control).
The target of assay [3] is T1, 320 wild-type protein kinases (Homo sapiens, UniProt P29320).
T1 sequence (P29320 21-983): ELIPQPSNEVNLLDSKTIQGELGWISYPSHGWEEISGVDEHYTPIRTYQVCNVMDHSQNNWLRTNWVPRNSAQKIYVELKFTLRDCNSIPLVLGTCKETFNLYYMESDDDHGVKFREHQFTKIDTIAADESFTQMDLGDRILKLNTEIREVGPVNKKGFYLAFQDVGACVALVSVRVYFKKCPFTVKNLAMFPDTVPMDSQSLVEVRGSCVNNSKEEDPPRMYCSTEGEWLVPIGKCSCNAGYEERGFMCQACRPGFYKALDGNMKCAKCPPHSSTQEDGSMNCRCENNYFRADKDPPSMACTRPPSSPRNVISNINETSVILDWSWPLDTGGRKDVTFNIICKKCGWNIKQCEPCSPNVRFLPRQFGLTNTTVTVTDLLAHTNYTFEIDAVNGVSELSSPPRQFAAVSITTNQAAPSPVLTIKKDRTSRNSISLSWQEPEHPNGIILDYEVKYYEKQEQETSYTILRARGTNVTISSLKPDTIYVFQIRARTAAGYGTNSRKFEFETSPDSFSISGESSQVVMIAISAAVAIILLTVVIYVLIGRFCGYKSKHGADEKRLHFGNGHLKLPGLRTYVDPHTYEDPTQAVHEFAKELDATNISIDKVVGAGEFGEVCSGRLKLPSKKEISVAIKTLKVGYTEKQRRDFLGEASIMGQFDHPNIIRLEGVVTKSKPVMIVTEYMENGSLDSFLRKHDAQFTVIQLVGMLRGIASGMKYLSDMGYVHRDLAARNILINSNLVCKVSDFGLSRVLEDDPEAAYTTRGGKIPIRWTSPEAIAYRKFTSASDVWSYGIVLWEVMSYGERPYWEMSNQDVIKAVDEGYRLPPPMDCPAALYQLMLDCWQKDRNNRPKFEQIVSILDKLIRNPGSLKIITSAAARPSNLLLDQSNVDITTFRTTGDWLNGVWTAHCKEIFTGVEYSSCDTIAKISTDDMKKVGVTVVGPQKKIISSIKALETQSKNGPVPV
It is filed as biochemical. To be noted: singlicate.
Description: as §1

The target in assay [4] is 320 wild-type protein kinases (Homo sapiens, UniProt Q9P0L2). Type of assay: biochemical. As to conditions: singlicate.
320 wild-type protein kinases (Homo sapiens, UniProt Q9P0L2), sequence (Q9P0L2 whole entry): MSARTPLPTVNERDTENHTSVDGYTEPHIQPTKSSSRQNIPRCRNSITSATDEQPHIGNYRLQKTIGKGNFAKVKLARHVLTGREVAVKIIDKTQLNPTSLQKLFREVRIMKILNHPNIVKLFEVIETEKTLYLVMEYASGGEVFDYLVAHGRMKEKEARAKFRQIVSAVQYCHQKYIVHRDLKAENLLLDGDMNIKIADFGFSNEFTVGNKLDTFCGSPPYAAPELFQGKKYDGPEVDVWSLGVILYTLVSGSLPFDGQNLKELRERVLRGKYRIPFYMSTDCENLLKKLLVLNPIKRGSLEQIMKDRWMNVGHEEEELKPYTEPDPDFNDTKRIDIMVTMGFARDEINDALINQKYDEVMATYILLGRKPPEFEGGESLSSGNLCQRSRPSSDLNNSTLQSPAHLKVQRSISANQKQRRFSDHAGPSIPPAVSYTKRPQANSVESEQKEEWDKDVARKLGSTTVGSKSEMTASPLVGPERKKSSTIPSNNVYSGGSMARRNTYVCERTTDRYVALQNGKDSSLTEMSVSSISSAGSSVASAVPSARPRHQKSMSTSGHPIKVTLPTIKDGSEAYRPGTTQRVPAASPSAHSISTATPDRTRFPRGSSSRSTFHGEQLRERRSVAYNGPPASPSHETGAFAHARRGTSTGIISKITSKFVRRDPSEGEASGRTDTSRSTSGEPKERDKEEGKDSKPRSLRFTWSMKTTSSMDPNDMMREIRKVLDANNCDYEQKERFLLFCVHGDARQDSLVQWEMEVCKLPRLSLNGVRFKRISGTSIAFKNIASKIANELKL
Description: as §1

In assay [5] the target is 320 wild-type protein kinases (Homo sapiens, UniProt P48729). It is filed as biochemical. To be noted: singlicate.
320 wild-type protein kinases (Homo sapiens, UniProt P48729), sequence (P48729 whole entry): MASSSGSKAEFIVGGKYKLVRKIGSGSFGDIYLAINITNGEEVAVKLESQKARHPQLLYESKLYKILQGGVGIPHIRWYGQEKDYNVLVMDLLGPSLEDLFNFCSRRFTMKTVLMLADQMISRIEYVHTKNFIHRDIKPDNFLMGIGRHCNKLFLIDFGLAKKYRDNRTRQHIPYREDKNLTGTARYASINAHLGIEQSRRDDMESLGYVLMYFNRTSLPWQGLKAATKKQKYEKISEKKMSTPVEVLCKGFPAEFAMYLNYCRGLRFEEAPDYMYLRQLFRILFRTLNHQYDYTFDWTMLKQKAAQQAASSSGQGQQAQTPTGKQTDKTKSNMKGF
Description: as §1

Assay [6] deals with 320 wild-type protein kinases (Homo sapiens, UniProt Q16620). Type of assay: biochemical. As to conditions: kinase TRK-B, singlicate.
320 wild-type protein kinases (Homo sapiens, UniProt Q16620), sequence (Q16620 32-822): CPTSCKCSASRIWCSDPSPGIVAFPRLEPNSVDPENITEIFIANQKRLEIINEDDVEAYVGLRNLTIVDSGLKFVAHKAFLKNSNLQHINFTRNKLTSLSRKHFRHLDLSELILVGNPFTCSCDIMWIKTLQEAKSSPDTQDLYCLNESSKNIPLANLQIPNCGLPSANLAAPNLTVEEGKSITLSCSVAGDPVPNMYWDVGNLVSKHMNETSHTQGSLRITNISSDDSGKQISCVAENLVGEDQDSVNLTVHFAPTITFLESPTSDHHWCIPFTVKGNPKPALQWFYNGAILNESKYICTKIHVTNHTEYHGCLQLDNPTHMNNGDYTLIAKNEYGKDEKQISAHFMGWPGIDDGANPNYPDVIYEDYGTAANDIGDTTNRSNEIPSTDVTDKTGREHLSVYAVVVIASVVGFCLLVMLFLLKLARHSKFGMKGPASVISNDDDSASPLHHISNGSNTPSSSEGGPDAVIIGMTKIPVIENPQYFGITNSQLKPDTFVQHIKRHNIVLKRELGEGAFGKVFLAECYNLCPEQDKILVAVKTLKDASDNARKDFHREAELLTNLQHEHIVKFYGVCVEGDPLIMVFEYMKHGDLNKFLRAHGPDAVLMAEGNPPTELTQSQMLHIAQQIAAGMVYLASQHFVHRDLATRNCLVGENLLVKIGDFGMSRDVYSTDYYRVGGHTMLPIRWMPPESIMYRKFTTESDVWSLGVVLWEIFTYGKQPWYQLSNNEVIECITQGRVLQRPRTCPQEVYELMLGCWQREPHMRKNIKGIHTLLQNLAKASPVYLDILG
Description: as §1

Assay [7] deals with 320 wild-type protein kinases (Homo sapiens, UniProt Q9H3Y6). Type of assay: biochemical. To be noted: kinase SRMS, singlicate.
320 wild-type protein kinases (Homo sapiens, UniProt Q9H3Y6), sequence (Q9H3Y6 whole entry): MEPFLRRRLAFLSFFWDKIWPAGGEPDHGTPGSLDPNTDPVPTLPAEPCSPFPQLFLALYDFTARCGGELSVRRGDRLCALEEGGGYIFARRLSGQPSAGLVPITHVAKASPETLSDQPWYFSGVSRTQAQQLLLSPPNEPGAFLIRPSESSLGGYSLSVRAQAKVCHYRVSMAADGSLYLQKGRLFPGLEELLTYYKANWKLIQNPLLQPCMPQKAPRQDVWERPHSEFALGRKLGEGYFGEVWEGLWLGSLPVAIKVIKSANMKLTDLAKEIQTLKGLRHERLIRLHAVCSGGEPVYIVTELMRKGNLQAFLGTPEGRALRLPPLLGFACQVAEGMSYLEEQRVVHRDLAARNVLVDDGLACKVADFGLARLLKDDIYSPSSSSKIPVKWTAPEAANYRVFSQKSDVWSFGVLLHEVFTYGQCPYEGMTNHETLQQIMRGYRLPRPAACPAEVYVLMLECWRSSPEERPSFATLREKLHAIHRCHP
Description: as §1

The target in assay [8] is 320 wild-type protein kinases (Homo sapiens, UniProt Q13164). It is filed as biochemical. To be noted: singlicate.
Description: as §1

For assay [9], the system named is U-CH7 patient-derived chordoma cell line. As to the kind of experiment: Cell viability assay (alamarBlue, 72 h), U-CH7. It is filed as cell-based, human. As to conditions: n = 4, 72 h. In short, it runs like this:
(§2)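 Patient-derived chordoma lines and WS1 fibroblasts seeded in 384-well plates, dosed in quadruplicate 24 h after plating.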
A general note: Alamar Blue is a resazurin reagent that responds to reducing activity.

Assay [10] concerns CH22 patient-derived chordoma cell line. As to the kind of experiment: Cell viability assay (alamarBlue, 72 h), CH22. Type of assay: cell-based, human. To be noted: n = 4, 72 h. In short, it runs like this:
as §2

Where [11] appears, read: ProQinase in-cell EGFR assay, A431 cells, n = 1.

The structures appear in SMILES notation. Read-outs that look alike come from different tables or passages of the source. Bounds are passed on as bounds.

320 wild-type protein kinases (Homo sapiens, UniProt P80192), sequence (P80192 whole entry): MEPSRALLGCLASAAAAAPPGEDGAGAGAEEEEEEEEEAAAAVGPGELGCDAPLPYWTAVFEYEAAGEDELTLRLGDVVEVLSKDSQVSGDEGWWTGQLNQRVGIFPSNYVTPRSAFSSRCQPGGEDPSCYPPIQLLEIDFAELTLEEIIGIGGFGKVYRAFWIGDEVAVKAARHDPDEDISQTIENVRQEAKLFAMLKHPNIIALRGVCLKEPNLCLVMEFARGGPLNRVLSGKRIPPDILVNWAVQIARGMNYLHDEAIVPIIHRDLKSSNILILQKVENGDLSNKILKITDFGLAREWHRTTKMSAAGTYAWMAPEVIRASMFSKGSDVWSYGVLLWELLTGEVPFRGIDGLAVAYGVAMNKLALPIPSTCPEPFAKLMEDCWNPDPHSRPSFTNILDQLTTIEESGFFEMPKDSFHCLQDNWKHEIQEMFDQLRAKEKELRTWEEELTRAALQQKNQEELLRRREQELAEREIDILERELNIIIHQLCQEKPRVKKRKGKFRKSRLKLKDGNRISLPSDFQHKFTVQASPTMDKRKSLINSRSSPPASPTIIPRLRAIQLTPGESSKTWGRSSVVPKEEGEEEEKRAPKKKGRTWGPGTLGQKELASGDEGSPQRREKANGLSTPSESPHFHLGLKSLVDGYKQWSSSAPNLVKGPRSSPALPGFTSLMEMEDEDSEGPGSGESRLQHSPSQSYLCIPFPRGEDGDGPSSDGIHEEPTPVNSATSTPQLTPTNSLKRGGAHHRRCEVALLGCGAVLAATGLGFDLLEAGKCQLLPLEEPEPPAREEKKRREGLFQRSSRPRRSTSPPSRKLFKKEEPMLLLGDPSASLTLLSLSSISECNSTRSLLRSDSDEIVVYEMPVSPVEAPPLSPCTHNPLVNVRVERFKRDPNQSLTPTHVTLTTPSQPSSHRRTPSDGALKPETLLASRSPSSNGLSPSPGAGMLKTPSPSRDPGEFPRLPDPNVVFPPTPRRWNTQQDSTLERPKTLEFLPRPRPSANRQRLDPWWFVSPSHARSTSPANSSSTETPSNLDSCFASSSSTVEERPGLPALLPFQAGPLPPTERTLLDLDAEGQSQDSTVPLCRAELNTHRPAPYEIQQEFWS

With `C#Cc1cc(Nc2ncnc3cc(I)ccc23)ccc1Cl` [Compound 41], the IC50 stood at 3700 nM in assay [1] (setting [11]), 8000 nM in [9] and 480 nM in assay [10]. For the same molecule, the Residual activity was 87 % of control in [2] (MAP3K9, 1.0E-06 M); 97 % of control in assay [2] (MAP3K9, 1.0E-07 M); 119 % of control in [3] (EPHA3, 1.0E-06 M); 118 % of control in assay [3] (EPHA3, 1.0E-07 M); 85 % of control in [4] (MARK1, 1.0E-06 M); 94 % of control in assay [4] (MARK1, 1.0E-07 M). In addition, the Residual activity in assay [5] (CK1-alpha1, 1.0E-06 M) is on record as 99 % of control; in assay [5] (CK1-alpha1, 1.0E-07 M) it was 104 % of control; in assay [8] (ERK5, 1.0E-06 M), 74 % of control; in [8] (ERK5, 1.0E-07 M), 92 % of control. For the same molecule, the “Residual activity, TRK-B” value in assay [6] (assay conc. 1.0E-06 M) is 98 % of control; in assay [6] (assay conc. 1.0E-07 M), 107 % of control. The “Residual activity, SRMS” value is listed as 98 % of control in [7] (assay conc. 1.0E-06 M) and 113 % of control in assay [7] (assay conc. 1.0E-07 M).
As for `C#Cc1cc(Nc2ncnc3cc(OC)c(OC)cc23)ccc1Cl` [Compound 45], the IC50 in assay [1] (setting [11]) was 18 nM; in assay [1] (in-cell EGFR inhibition), less than 100 nM; in assay [9], 74000 nM; in assay [10] it was 1200 nM. The Residual activity is 61 % of control in assay [2] (MAP3K9, 1.0E-06 M); 92 % of control in assay [2] (MAP3K9, 1.0E-07 M); 111 % of control in [3] (EPHA3, 1.0E-06 M); 128 % of control in assay [3] (EPHA3, 1.0E-07 M); 93 % of control in assay [4] (MARK1, 1.0E-06 M); 93 % of control in [4] (MARK1, 1.0E-07 M). The Residual activity in assay [5] (CK1-alpha1, 1.0E-06 M) is 95 % of control; in [5] (CK1-alpha1, 1.0E-07 M) it was 98 % of control; in assay [8] (ERK5, 1.0E-06 M), 85 % of control; in assay [8] (ERK5, 1.0E-07 M) it was 96 % of control. In addition, the “Residual activity, TRK-B” value was 97 % of control in assay [6] (assay conc. 1.0E-06 M) and 98 % of control in assay [6] (assay conc. 1.0E-07 M). In addition, the results for the “Residual activity, SRMS” value in [7] (assay conc. 1.0E-06 M) and in assay [7] (assay conc. 1.0E-07 M) were 103 % of control and 124 % of control, respectively.
